Experiments:
Type in all cases: in vivo
[1] = tested on: Alopecurus myosuroides (ALOMY); assay: Herbicidal pre-emergence action, section A (Table A2); conditions: visual grading after ca. 3 weeks vs untreated controls
Summary of the method: (§1)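 Sandy loam pots, seeds covered with soil, treated on the soil surface with aqueous WP or EC preparations containing 0.5% additive (600 l/ha). Visual damage rating after ca. 3 weeks in greenhouse; scale 0% (as control) to 100% (plants died off).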

Setaria viridis (SETVI) = assay: Herbicidal pre-emergence action, section A (Table A8); conditions: for pest or weed control at 320 g/ha: Setaria viridis, 504 h, read-out: pre-emergence activity against SETVI in %
Summary of the method: as §1

Veronica persica (VERPE) [2] = assay: Herbicidal pre-emergence action, section A (Table A10); conditions: for pest or weed control at 1280 g/ha: Veronica persica, 504 h, read-out: pre-emergence activity against VERPE in %
Summary of the method: as §1

[3] = tested on: Echinochloa crus-galli (ECHCG); assay: Herbicidal post-emergence action, section B (Table B3); conditions: rated visually after about 3 weeks; for pest or weed control at 1280 g/ha: Echinochloa crus-galli, 504 h, read-out: post-emergence activity against ECHCG in %
Summary of the method: (§2)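 Under optimum greenhouse conditions, sandy-loam-grown weeds at the one-leaf stage are sprayed with aqueous suspension or emulsion carrying 0.5% additive, 600 liters per hectare. About 3 weeks later, visual percent activity is scored relative to untreated controls.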

Kochia scoparia (KCHSC) = assay: Herbicidal post-emergence action, section B (Table B4); conditions: visual rating about 3 weeks after treatment vs untreated controls
Summary of the method: as §2

[4] = tested on: Digitaria sanguinalis (DIGSA); assay: Herbicidal post-emergence action, section B (Table B12); conditions: visual rating about 3 weeks after treatment vs untreated controls; for pest or weed control at 1280 g/ha: Digitaria sanguinalis, post-emergence, 504 h, read-out: post-emergence activity against DIGSA in %
Summary of the method: as §2

[5] = tested on: Echinochloa crus-galli (ECHCG); assay: Herbicidal pre-emergence action, section C (Table C3); conditions: visual grading after ca. 3 weeks vs untreated controls
Summary of the method: (§3)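 Weed and crop seeds sown in sandy loam, covered with soil, then WP or EC formulations sprayed onto the soil surface as aqueous suspension/emulsion with 0.5% additive at 600 l water/ha. Kept in greenhouse under optimum conditions; damage graded visually after ca. 3 weeks versus untreated controls (0% = as control, 100% = plants dead).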

Lolium rigidum (LOLRI) = assay: Herbicidal pre-emergence action, section C (Table C5); conditions: visual grading after ca. 3 weeks
Source text: Seeds of mono- and dicotyledonous weed plants and crop plants were sown, in plastic or organic planting pots, in sandy loam and covered with soil. The compounds according to the invention, formulated in the form of wettable powders (WP) or as emulsifiable concentrates (EC), were applied to the surface of the covering soil as aqueous suspension or emulsion, with the addition of 0.5% of an additive, at an application rate of 600 l of water/ha (converted). Following treatment, the pots were placed in a greenhouse and kept under optimum growth conditions for the test plants. The visual grading of the damage to the test plants was carried out after ca. 3 weeks in comparison to untreated controls (herbicidal effect in percent (%): 100% effect=plants have died off, 0% effect=as control plants).

[6] = tested on: Amaranthus retroflexus (AMARE); assay: Herbicidal pre-emergence action, section C (Table C11); conditions: visual grading after ca. 3 weeks
Summary of the method: as §3

Veronica persica (VERPE) [7] = assay: Herbicidal post-emergence action, section E (Table E9); conditions: visual assessment ca. 3 weeks after spraying; for pest or weed control at 320 g/ha: Veronica persica, 504 h, read-out: post-emergence activity against VERPE in %
Source text: Seeds of mono- and dicotyledonous weed plants and crop plants were sown, in plastic or organic planting pots, in sandy loam, covered with soil and grown in a greenhouse under controlled growth conditions. 2 to 3 weeks after sowing, the test plants were sprayed in the single-leaf stage. The compounds according to the invention, formulated in form of wettable powders (WP) or as emulsifiable concentrates (EC), were sprayed onto the green plant parts as aqueous suspension or emulsion, with the addition of 0.5% of an additive, at an application rate of 600 l of water/ha (converted). The test plants were placed in the greenhouse for ca. 3 weeks under optimum growth conditions, and then the effect of the preparations was assessed visually in comparison with untreated controls (herbicidal effect in percent (%): 100% effect=plants have died off, 0% effect=as control plants).

## COC(=O)CCC(=O)N1CSc2cc(C)c(-c3ccccc3F)nc21 [Example I-010]
[1]; application rate 1280 g/ha
  pre-emergence activity against ALOMY in %: 100%
Setaria viridis (SETVI); application rate 1280 g/ha
  pre-emergence activity against SETVI in %: 100%
Veronica persica (VERPE) [2]; application rate 1280 g/ha
  pre-emergence activity against VERPE in %: 90%
[3]; application rate 1280 g/ha
  post-emergence activity against ECHCG in %: 90%
Kochia scoparia (KCHSC); application rate 320 g/ha
  post-emergence activity against KCHSC in %: 90%
[4]; application rate 1280 g/ha
  post-emergence activity against DIGSA in %: 90%
[5]; application rate 80 g/ha
  pre-emergence activity against ECHCG in %: 100%
Lolium rigidum (LOLRI); application rate 320 g/ha
  pre-emergence activity against LOLRI in %: 100%
[6]; application rate 320 g/ha
  pre-emergence activity against AMARE in %: 90%
Veronica persica (VERPE) [7]; application rate 320 g/ha
  post-emergence activity against VERPE in %: 80%

## Cc1cc2c(nc1-c1ccccc1)N(C(=O)C1(C)CC(Cl)=NO1)CS2 (stereo not shown) [Example I-088]
[1]; application rate 1280 g/ha
  pre-emergence activity against ALOMY in %: 100%
Setaria viridis (SETVI); application rate 320 g/ha
  pre-emergence activity against SETVI in %: 100%
Veronica persica (VERPE) [2]; application rate 1280 g/ha
  pre-emergence activity against VERPE in %: 90%
[3]; application rate 320 g/ha
  post-emergence activity against ECHCG in %: 90%
Kochia scoparia (KCHSC); application rate 320 g/ha
  post-emergence activity against KCHSC in %: 90%
[4]; application rate 1280 g/ha
  post-emergence activity against DIGSA in %: 100%
[5]; application rate 320 g/ha
  pre-emergence activity against ECHCG in %: 100%
[6]; application rate 320 g/ha
  pre-emergence activity against AMARE in %: 90%
Veronica persica (VERPE) [7]; application rate 320 g/ha
  post-emergence activity against VERPE in %: 80%

## Cc1cc2c(nc1-c1ccccc1F)N(C(=O)C13CCCC1C(Cl)=NO3)CS2 (stereo not shown) [Example I-104]
[1]; application rate 320 g/ha
  pre-emergence activity against ALOMY in %: 90%
Setaria viridis (SETVI); application rate 320 g/ha
  pre-emergence activity against SETVI in %: 100%
Veronica persica (VERPE) [2]; application rate 1280 g/ha
  pre-emergence activity against VERPE in %: 90%
[3]; application rate 320 g/ha
  post-emergence activity against ECHCG in %: 90%
Kochia scoparia (KCHSC); application rate 320 g/ha
  post-emergence activity against KCHSC in %: 90%
[4]; application rate 1280 g/ha
  post-emergence activity against DIGSA in %: 90%
[5]; application rate 80 g/ha
  pre-emergence activity against ECHCG in %: 100%
Lolium rigidum (LOLRI); application rate 320 g/ha
  pre-emergence activity against LOLRI in %: 100%
[6]; application rate 80 g/ha
  pre-emergence activity against AMARE in %: 80%
Veronica persica (VERPE) [7]; application rate 80 g/ha
  post-emergence activity against VERPE in %: 80%

## Cc1cc2c(nc1-c1cccc(C)c1F)NCS2 [Example I-113]
Setaria viridis (SETVI); application rate 320 g/ha
  pre-emergence activity against SETVI in %: 100%
Veronica persica (VERPE) [2]; application rate 1280 g/ha
  pre-emergence activity against VERPE in %: 90%
Kochia scoparia (KCHSC); application rate 320 g/ha
  post-emergence activity against KCHSC in %: 90%
[4]; application rate 320 g/ha
  post-emergence activity against DIGSA in %: 90%
[5]; application rate 320 g/ha
  pre-emergence activity against ECHCG in %: 100%
Lolium rigidum (LOLRI); application rate 320 g/ha
  pre-emergence activity against LOLRI in %: 90%

## Cc1cc2c(nc1-c1ccccc1F)N(S(=O)(=O)Cc1ccc(F)cc1)CS2 [Example I-122]
[1]; application rate 1280 g/ha
  pre-emergence activity against ALOMY in %: 100%
Setaria viridis (SETVI); application rate 320 g/ha
  pre-emergence activity against SETVI in %: 100%
Veronica persica (VERPE) [2]; application rate 1280 g/ha
  pre-emergence activity against VERPE in %: 90%
[3]; application rate 1280 g/ha
  post-emergence activity against ECHCG in %: 100%
Kochia scoparia (KCHSC); application rate 320 g/ha
  post-emergence activity against KCHSC in %: 90%
[4]; application rate 1280 g/ha
  post-emergence activity against DIGSA in %: 90%
[5]; application rate 320 g/ha
  pre-emergence activity against ECHCG in %: 100%
Lolium rigidum (LOLRI); application rate 320 g/ha
  pre-emergence activity against LOLRI in %: 100%
Veronica persica (VERPE) [7]; application rate 320 g/ha
  post-emergence activity against VERPE in %: 90%

## CCOCCS(=O)(=O)N1C[S+]([O-])c2cc(C)c(-c3ccccc3F)nc21 (stereo not shown) [Example I-127]
[1]; Alopecurus myosuroides, pre-emergence, 504 h, application rate 320 g/ha, read-out: pre-emergence activity against ALOMY in %
  pest or weed control at 320 g/ha: 100%
Setaria viridis (SETVI); application rate 320 g/ha
  pest or weed control at 320 g/ha: 100%
Veronica persica (VERPE) [2]; application rate 1280 g/ha
  pest or weed control at 1280 g/ha: 90%
[3]; application rate 1280 g/ha
  pest or weed control at 1280 g/ha: 90%
Kochia scoparia (KCHSC); Bassia scoparia, post-emergence, 504 h, application rate 320 g/ha, read-out: post-emergence activity against KCHSC in %
  pest or weed control at 320 g/ha: 90%
[4]; application rate 1280 g/ha
  pest or weed control at 1280 g/ha: 90%
Lolium rigidum (LOLRI); Lolium rigidum, pre-emergence, 504 h, application rate 80 g/ha, read-out: pre-emergence activity against LOLRI in %
  pest or weed control at 80 g/ha: 80%
[6]; Amaranthus retroflexus, pre-emergence, 504 h, application rate 320 g/ha, read-out: pre-emergence activity against AMARE in %
  pest or weed control at 320 g/ha: 90%
Veronica persica (VERPE) [7]; application rate 320 g/ha
  pest or weed control at 320 g/ha: 90%

## COCC1(C(=O)N2CSc3cc(C)c(-c4ccccc4F)nc32)CC(Cl)=NO1 (stereo not shown) [Example I-128]
[1]; application rate 320 g/ha
  pre-emergence activity against ALOMY in %: 100%
Setaria viridis (SETVI); application rate 320 g/ha
  pre-emergence activity against SETVI in %: 100%
Veronica persica (VERPE) [2]; application rate 320 g/ha
  pre-emergence activity against VERPE in %: 90%
[3]; application rate 320 g/ha
  post-emergence activity against ECHCG in %: 90%
Kochia scoparia (KCHSC); application rate 320 g/ha
  post-emergence activity against KCHSC in %: 90%
[4]; application rate 1280 g/ha
  post-emergence activity against DIGSA in %: 90%
[5]; application rate 80 g/ha
  pre-emergence activity against ECHCG in %: 100%
Lolium rigidum (LOLRI); application rate 80 g/ha
  pre-emergence activity against LOLRI in %: 100%
[6]; application rate 320 g/ha
  pre-emergence activity against AMARE in %: 90%
Veronica persica (VERPE) [7]; application rate 80 g/ha
  post-emergence activity against VERPE in %: 80%

## Cc1ccccc1-c1nc2c(cc1C)SCN2C(=O)C1(C)CC(Cl)=NO1 (stereo not shown) [Example I-137]
[1]; application rate 320 g/ha
  pre-emergence activity against ALOMY in %: 90%
Setaria viridis (SETVI); application rate 320 g/ha
  pre-emergence activity against SETVI in %: 100%
Veronica persica (VERPE) [2]; application rate 320 g/ha
  pre-emergence activity against VERPE in %: 90%
[3]; application rate 320 g/ha
  post-emergence activity against ECHCG in %: 90%
Kochia scoparia (KCHSC); application rate 320 g/ha
  post-emergence activity against KCHSC in %: 90%
[4]; application rate 1280 g/ha
  post-emergence activity against DIGSA in %: 90%
[5]; application rate 80 g/ha
  pre-emergence activity against ECHCG in %: 100%
Lolium rigidum (LOLRI); application rate 320 g/ha
  pre-emergence activity against LOLRI in %: 100%
[6]; application rate 80 g/ha
  pre-emergence activity against AMARE in %: 90%
Veronica persica (VERPE) [7]; application rate 320 g/ha
  post-emergence activity against VERPE in %: 80%

## CC1(C(=O)N2CSc3cc(Br)c(-c4ccccc4Cl)nc32)CC(Cl)=NO1 (stereo not shown) [Example I-141, [6-bromo-5-(2-chlorophenyl)[1,3]thiazolo[4,5-b]pyridin-3(2H)-yl](3-chloro-5-methyl-4,5-dihydro-1,2-oxazol-5-yl)methanone]
[1]; Alopecurus myosuroides, pre-emergence, 504 h, application rate 1280 g/ha, read-out: pre-emergence activity against ALOMY in %
  pest or weed control at 1280 g/ha: 90%
Setaria viridis (SETVI); application rate 320 g/ha
  pest or weed control at 320 g/ha: 100%
Veronica persica (VERPE) [2]; application rate 1280 g/ha
  pest or weed control at 1280 g/ha: 90%
[3]; application rate 1280 g/ha
  pest or weed control at 1280 g/ha: 90%
Kochia scoparia (KCHSC); Bassia scoparia, post-emergence, 504 h, application rate 1280 g/ha, read-out: post-emergence activity against KCHSC in %
  pest or weed control at 1280 g/ha: 90%
[4]; application rate 1280 g/ha
  pest or weed control at 1280 g/ha: 90%
[5]; Echinochloa crus-galli, pre-emergence, 504 h, application rate 320 g/ha, read-out: pre-emergence activity against ECHCG in %
  pest or weed control at 320 g/ha: 100%
[6]; Amaranthus retroflexus, pre-emergence, 504 h, application rate 80 g/ha, read-out: pre-emergence activity against AMARE in %
  pest or weed control at 80 g/ha: 100%
Veronica persica (VERPE) [7]; application rate 320 g/ha
  pest or weed control at 320 g/ha: 80%

— patent publication US20240381872A1, “SUBSTITUTED 2,3-DIHYDRO[1,3]THIAZOLO[4,5-B]PYRIDINES, SALTS THEREOF AND THEIR USE AS HERBICIDALLY ACTIVE SUBSTANCES” (BAYER AKTIENGESELLSCHAFT, priority 2021, published 2024)
